Patent US20090170897A1, “Method of Treating Neuropathic Pain” (Pfizer, Inc., priority 2004, published 2009)

Assays:
[1] = test system: Carrageenan-induced thermal hyperalgesia (CITH) in the rat; assay: Carrageenan-induced thermal hyperalgesia (CITH), rat plantar test; type: in vivo; details: 25 mg/kg PO
Procedure: (§1) Male Sprague Dawley rats weighing 150-400 g obtained from Charles River (Manston, Kent, UK.) were housed in groups of 3. All animals were kept under a 12 h light/dark cycle (lights on at 07 h 00 min) with food and water ad libitum. All experiments were carried out by an observer blind to the treatments and in accordance with the Home Office Animals (Scientific Procedures) Act 1986.
Thermal hyperalgesia was assessed using the rat plantar test (Ugo Basile, Comerio, Italy), according to a method modified by Hargreaves et al. (1988). Briefly, rats were habituated to the apparatus that consisted of three individual Perspex boxes on a glass table. A mobile radiant heat source was located under the table and focused onto the desired paw. Paw withdrawal latencies (PWLs) were recorded three times for both hind paws of each animal, the mean of which represented baseline for left and right hind paws. The apparatus was calibrated to give a PWL of approximately 10 s in naïve rats. To prevent tissue damage of the plantar zone, a 22.5 sec cut-off was observed. Lambda carrageenan was injected intraplantarly (100 μl, 20 mg/ml) the right hind paw and baseline recordings of PWT were taken 2 hr post administration.
(§2) All the experiments were conducted blind. Static allodynia was expressed as median [LQ; UQ] and analysed by Mann Whitney U test. Dynamic allodynia and thermal hyperalgesia were expressed as arithmetic mean±SEM and analysed by ANOVA.

[2] = target: T1, CRTH2 receptor (Rattus norvegicus, UniProt Q6XKD3); assay: IC50 at rat CRTH2 receptor (rIC50)
T1 sequence (Q6XKD3 1-403): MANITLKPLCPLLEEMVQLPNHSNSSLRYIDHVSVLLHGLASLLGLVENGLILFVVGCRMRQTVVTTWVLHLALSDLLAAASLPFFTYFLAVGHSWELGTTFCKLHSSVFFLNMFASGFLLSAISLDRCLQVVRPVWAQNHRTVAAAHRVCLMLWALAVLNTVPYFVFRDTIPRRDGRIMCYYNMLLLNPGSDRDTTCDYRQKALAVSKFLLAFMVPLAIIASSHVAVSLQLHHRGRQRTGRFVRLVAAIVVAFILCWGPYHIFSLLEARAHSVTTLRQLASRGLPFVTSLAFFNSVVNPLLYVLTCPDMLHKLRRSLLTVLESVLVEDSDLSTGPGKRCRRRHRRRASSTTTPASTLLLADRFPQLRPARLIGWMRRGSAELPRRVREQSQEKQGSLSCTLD

[3] = test system: Chronic Constriction Injury (CCI) rat model of neuropathic pain; assay: CCI-induced dynamic allodynia (cotton bud, PWL); type: in vivo
Procedure: as §1
The CCI of sciatic nerve was performed as previously described by Bennett and Xie (Bennett G J, Xie Y K. A peripheral mononeuropathy in rat that produces disorders of pain sensation like those seen in man. Pain:33:87-107, 1988). Animals were anaesthetised with a 2% isofluorane/O2 mixture. The right hind thigh was shaved and swabbed with 1% iodine. Animals were then transferred to a homeothermic blanket for the duration of the procedure and anaesthesia maintained during surgery via a nose cone. The skin was cut along the line of the thighbone. The common sciatic nerve was exposed at the middle of the thigh by blunt dissection through biceps femoris. About 7 mm of nerve was freed proximal to the sciatic trifurcation, by inserting forceps under the nerve and the nerve gently lifted out of the thigh. Suture was pulled under the nerve using forceps and tied in a simple knot until slight resistance was felt and then double knotted. The procedure was repeated until 4 ligatures (4-0 silk) were tied loosely around the nerve with approx 1 mm spacing. The incision was closed in layers.
Dynamic allodynia was assessed by lightly stroking the plantar surface of the hind paw with a cotton bud. To avoid recording general motor activity, care was taken to perform this procedure in fully habituated rats that were not active. At least two measurements were taken at each time point, the mean of which represented the paw withdrawal latency (PWL). […] A pain withdrawal response was often accompanied with repeated flinching or licking of the paw. Dynamic allodynia was considered to be present if animals responded to the cotton stimulus within 8 sec of commencing stroking (Field et al, 1999).
as §2

[4] = target: T2, CRTH2 receptor (Homo sapiens, UniProt Q9Y5Y4); assay: competition binding of 3H-PGD2 at CRTH2 and DP receptors (selectivity); details: competition with 3H-PGD2 binding, IC50 at both receptors
T2 construct: Flag peptide (behind a 'prolac' signal peptide) (N); expressed in transfected cells
T2 sequence (Q9Y5Y4 1-395): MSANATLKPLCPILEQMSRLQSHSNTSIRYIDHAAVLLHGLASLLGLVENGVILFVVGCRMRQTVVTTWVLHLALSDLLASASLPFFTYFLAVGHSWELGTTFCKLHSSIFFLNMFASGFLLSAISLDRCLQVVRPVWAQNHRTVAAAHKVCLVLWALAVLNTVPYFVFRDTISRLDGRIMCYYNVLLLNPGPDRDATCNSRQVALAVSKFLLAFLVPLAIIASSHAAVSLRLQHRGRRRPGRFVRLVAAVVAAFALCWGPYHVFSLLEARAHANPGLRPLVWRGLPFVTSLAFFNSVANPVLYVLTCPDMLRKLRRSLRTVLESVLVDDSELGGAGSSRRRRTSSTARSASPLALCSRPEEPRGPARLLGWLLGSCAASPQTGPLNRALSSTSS
Procedure: A CRTH2 receptor ligand or antagonist, can be tested for selectivity for the CRTH2 receptor in comparison with DP. In the assay, the capacity of each test compound to compete with binding of ^3H-PGD2 is measured at both the CRTH2 and DP receptors, and an IC50 value (in μM) is determined. Controls can be set up using cold PGD2 to compete with ^3H-PGD2. Any of the above mentioned binding assay procedures can be used. Selectivity of CRTH2 receptor antagonists should be at least 10 fold compared to other GPCRs especially the D type of prostanoid receptor or DP receptor (N-cyclopropyl-N-[2-methyl-1-(pyridine-3-carbonyl)-1,2,3,4-tetrahydro-quinolin-4-yl]-acetamide is >50 fold selective), preferably it should be at least 100 fold selective and even more preferably at least 1000 fold selective, alternatively the antagonist should be selective for CRTH2 receptor over any of the receptors C3a, C5a, FMLP, LTB4, GPCR0269, GPCR0232 or GPCR0288.

`CC(=O)N(C1CC1)C1CC(C)N(C(=O)c2cccnc2)c2ccccc21` (stereo not shown) [N-cyclopropyl-N-[2-methyl-1-(pyridine-3-carbonyl)-1,2,3,4-tetrahydro-quinolin-4-yl]-acetamide] was tested, and the “effect in the contralateral paw” value [1] was “no effect”, the “effect on maintenance of thermal hyperalgesia (ipsilateral paw)” value [1] was “completely reversed” and the “paw withdrawal latency at peak effect (mean±SEM)” value ([1]; 2 h post administration, ipsilateral paw, vehicle 3.9±0.2) was 10.1±0.6. For the same molecule, the “time of peak effect, thermal hyperalgesia” value ([1]; post administration) was 2 h, the “duration of anti-hyperalgesic effect” value ([1]; post compound administration) was 5 h and the IC50 [2] was 0.045 µM. For the same molecule, the “time of peak effect, dynamic allodynia” value ([3]; 25 mg/kg PO (MED), post administration) was 1 h, the “effect on maintenance of CCI-induced dynamic allodynia” value ([3]; 12.5, 25 and 50 mg/kg PO, from 14 days post surgery) was “reversed the maintenance of CCI-induced static and dynamic allodynia in a dose dependent manner” and the “MED, dynamic allodynia” value ([3]; PO) was 25 mg/kg. For the same molecule, the “dynamic allodynia effect relative to gabapentin” value ([3]; highest dose (50 mg/kg PO) vs gabapentin 100 mg/kg PO) was “less potent but significantly different from vehicle treated CCI rats”, the “dynamic allodynia paw withdrawal latency (mean±SEM)” value ([3]; highest dose (50 mg/kg PO), 2 hrs post administration, vehicle 3.5±0.7) was 11.8±1.0 and the “onset of anti-allodynic effect, dynamic allodynia” value ([3]; highest dose (50 mg/kg PO), post dose, p<0.01 vs vehicle) was 30 min. For the same molecule, the “selectivity for CRTH2 receptor compared to DP receptor” value [4] was over 50 fold.
